According to patent publication US20240041042A1, “1-(PYRIDYL)-5-AZINYLPYRAZOLE DERIVATIVES, AND THEIR USE FOR CONTROL OF UNDESIRED PLANT GROWTH” (Bayer Aktiengesellschaft, priority 2020, published 2024):
Read-outs that look alike come from different tables or passages of the source.

Key:
Type in all cases: in vivo
[1] = tested on: Abutilon theophrasti (ABUTH); assay: Pre-emergence herbicidal action against ABUTH; conditions: Dosage column 320 g/ha (title prints 3200 g/ha); scored visually after about 3 weeks; 100% = plants have died
In short: (§1)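 Application rates ran to 320 g/ha or lower, with several dosages tested on the same weeds. The compound, as wettable powder or emulsion concentrate, is sprayed pre-emergence onto soil over sown seeds; greenhouse growth follows, and effect is rated visually after roughly 3 weeks.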

[2] = tested on: Alopecurus myosuroides (ALOMY); assay: Pre-emergence herbicidal action against ALOMY; conditions: scored visually after about 3 weeks, 100% = plants have died
In short: as §1

[3] = tested on: Amaranthus retroflexus (AMARE); assay: Pre-emergence herbicidal action against AMARE; conditions: visual scoring after about 3 weeks vs untreated controls
In short: as §1

Avena fatua (AVEFA) [4] = assay: Pre-emergence herbicidal action against AVEFA; conditions: visual scoring after about 3 weeks vs untreated controls
In short: as §1

[5] = tested on: Echinochloa crus-galli (ECHCG); assay: Pre-emergence herbicidal action against ECHCG
In short: as §1

Lolium rigidum (LOLRI) [6] = assay: Pre-emergence herbicidal action against LOLRI
In short: as §1

[7] = tested on: Matricaria inodora (MATIN); assay: Pre-emergence herbicidal action against MATIN
In short: as §1

[8] = tested on: Pharbitis purpurea (PHBPU); assay: Pre-emergence herbicidal action against PHBPU
In short: as §1

[9] = tested on: Polygonum convolvulus (POLCO); assay: Pre-emergence herbicidal action against POLCO
In short: as §1

Setaria viridis (SETVI) [10] = assay: Pre-emergence herbicidal action against SETVI
In short: as §1

[11] = tested on: Verconica persica (VERPE); assay: Pre-emergence herbicidal action against VERPE; conditions: dosage 320 g/ha
In short: as §1

Viola tricolor (VIOTR) [12] = assay: Pre-emergence herbicidal action against VIOTR
In short: as §1

[13] = tested on: Abutilon theophrasti (ABUTH); assay: Post-emergence herbicidal action against ABUTH; conditions: visual rating about 3 weeks after treatment vs untreated controls (100% = plants have died, 0% = like control plants)
In short: (§2)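 Doses of 320 g/ha or lower, suffixes a, b and c marking different dosages, were applied post-emergence at the one-leaf stage in 600 l/ha water with 0.5% additive. Damage was assessed visually after about 3 weeks in the greenhouse.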

[14] = tested on: Alopecurus myosuroides (ALOMY); assay: Post-emergence herbicidal action against ALOMY; conditions: visual rating about 3 weeks after treatment vs untreated controls (100% = plants have died, 0% = like control plants)
In short: as §2

[15] = tested on: Amaranthus retroflexus (AMARE); assay: Post-emergence herbicidal action against AMARE
In short: as §2

Avena fatua (AVEFA) [16] = assay: Post-emergence herbicidal action against AVEFA; conditions: 80 g/ha, visual rating about 3 weeks after treatment
In short: as §2

[17] = tested on: Echinochloa crus-galli (ECHCG); assay: Post-emergence herbicidal action against ECHCG
In short: as §2

[18] = tested on: Matricaria inodora (MATIN); assay: Post-emergence herbicidal action against MATIN
In short: as §2

[19] = tested on: Pharbitis purpurea (PHBPU); assay: Post-emergence herbicidal action against PHBPU
In short: as §2

[20] = tested on: Polygonum convolvulus (POLCO); assay: Post-emergence herbicidal action against POLCO; conditions: dosage 80 g/ha
In short: as §2

Setaria viridis (SETVI) [21] = assay: Post-emergence herbicidal action against SETVI
In short: as §2

[22] = tested on: Verconica persica (VERPE); assay: Post-emergence herbicidal action against VERPE
In short: as §2

Oryza sativa (ORYSA) = conditions: crop plant compatibility
In short: (§3)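 Foliar application at the one-leaf stage: WP/EC formulation, 0.5% additive, 600 l/ha water. Greenhouse-grown in sandy loam. Endpoint is visual % injury relative to untreated controls at about 3 weeks.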

Zea mays (ZEAMX) = conditions: for Post-emergence action against ZEAMX in % (crop plant compatibility): 20 g/ha, effect in comparison to untreated controls
In short: as §3

Lolium rigidum (LOLRI) [23] = assay: Post-emergence herbicidal action against LOLRI; conditions: dosage 80 g/ha
In short: as §2

Viola tricolor (VIOTR) [24] = assay: Post-emergence herbicidal action against VIOTR; conditions: 320 g/ha
In short: as §2

[25] = 20 g/ha, effect vs untreated controls
[26] = 80 g/ha, effect in comparison to untreated controls

Row | Post-emergence action against ORYSA in % (Oryza sativa (ORYSA); [26]) [%] | Structure (SMILES) | Pre-emergence action against ABUTH [1] [%] | Pre-emergence action against ALOMY ([2]; 80 g/ha) [%] | Pre-emergence action against ALOMY ([2]; 320 g/ha) [%] | Pre-emergence action against AMARE in % ([3]; 80 g/ha) [%] | Pre-emergence action against AMARE in % ([3]; 320 g/ha) [%] | Pre-emergence action against AVEFA in % (Avena fatua (AVEFA) [4]; 320 g/ha) [%] | Pre-emergence action against ECHCG in % ([5]; dosage 80 g/ha) [%] | Pre-emergence action against ECHCG in % ([5]; dosage 320 g/ha) [%] | Pre-emergence action against MATIN in % ([7]; dosage 320 g/ha) [%] | Pre-emergence action against PHBPU in % ([8]; dosage 320 g/ha) [%] | Pre-emergence action against POLCO in % ([9]; dosage 80 g/ha) [%] | Pre-emergence action against POLCO in % ([9]; dosage 320 g/ha) [%] | Pre-emergence action against SETVI in % (Setaria viridis (SETVI) [10]; dosage 80 g/ha) [%] | Pre-emergence action against SETVI in % (Setaria viridis (SETVI) [10]; dosage 320 g/ha) [%] | Pre-emergence action against VERPE in % [11] [%] | Pre-emergence action against VIOTR in % (Viola tricolor (VIOTR) [12]; 320 g/ha, Viola tricolor) [%] | Pre-emergence action against VIOTR in % (Viola tricolor (VIOTR) [12]; dosage 80 g/ha) [%] | Post-emergence action against ECHCG in % ([17]; dosage 80 g/ha) [%] | Post-emergence action against VERPE in % ([22]; dosage 80 g/ha) [%] | further results
1 | 0 | O=C(O)COc1nn(-c2ccccn2)c(-c2cncc(F)c2)c1Cl [Example I-81] | 90 | 80 | 100 | 80 | 90 | 80 | 90 | 100 | 90 | 100 | 90 | 90 | 90 | 100 | 90 | 100 | 80 | 90 | 90 | Pre-emergence action against LOLRI in % (Lolium rigidum (LOLRI) [6]; dosage 80 g/ha): 90%; Pre-emergence action against LOLRI in % (Lolium rigidum (LOLRI) [6]; dosage 320 g/ha): 100%; Pre-emergence action against MATIN in % ([7]; dosage 80 g/ha): 80%; Pre-emergence action against PHBPU in % ([8]; dosage 80 g/ha): 90%; Post-emergence action against ABUTH in % ([13]; 80 g/ha): 80%; Post-emergence action against ALOMY in % ([14]; 80 g/ha): 90%; Post-emergence action against AMARE in % ([15]; 80 g/ha, visual rating about 3 weeks after treatment vs untreated controls (100% = plants have died, 0% = like control plants)): 90%; Post-emergence action against AVEFA in % (Avena fatua (AVEFA) [16]): 90%; Post-emergence action against MATIN in % ([18]; dosage 80 g/ha): 90%; Post-emergence action against PHBPU in % ([19]; dosage 80 g/ha): 90%; Post-emergence action against POLCO in % [20]: 80%; Post-emergence action against SETVI in % (Setaria viridis (SETVI) [21]; dosage 80 g/ha): 80%; Post-emergence action against ORYSA in % (Oryza sativa (ORYSA); [25]): 0%; Post-emergence action against ZEAMX in % (crop plant compatibility) (Zea mays (ZEAMX)): 0%; Post-emergence action against ZEAMX in % (Zea mays (ZEAMX); crop plant compatibility, 80 g/ha, effect vs untreated controls): 0%
2 | 10 | CCOC(=O)[C@@H](C)Oc1nn(-c2ncccc2F)c(-c2ccc(F)nc2)c1Br [Example I-33] | 80 | 100 | 100 | 90 | 100 | 100 | 90 | 100 | 90 | 90 | 90 | 100 | 90 | 100 | 100 | 100 | 100 | 90 | 90 | Pre-emergence action against AVEFA in % (Avena fatua (AVEFA) [4]; 80 g/ha): 80%; Pre-emergence action against LOLRI in % (Lolium rigidum (LOLRI) [6]; dosage 80 g/ha): 90%; Pre-emergence action against LOLRI in % (Lolium rigidum (LOLRI) [6]; dosage 320 g/ha): 100%; Post-emergence action against ALOMY in % ([14]; 80 g/ha): 90%; Post-emergence action against AVEFA in % (Avena fatua (AVEFA) [16]): 90%; Post-emergence action against LOLRI in % (Lolium rigidum (LOLRI) [23]): 80%; Post-emergence action against MATIN in % ([18]; dosage 80 g/ha): 80%; Post-emergence action against ORYSA in % (Oryza sativa (ORYSA); [25]): 0%; Post-emergence action against ZEAMX in % (crop plant compatibility) (Zea mays (ZEAMX)): 10%
3 | 10 | O=C(O)COc1nn(-c2nc(F)ccc2F)c(-c2cncc(F)c2)c1Br [Example I-207] | 80 | – | 80 | 90 | 100 | 80 | 90 | 100 | 90 | 90 | 90 | 100 | 80 | 100 | 90 | 100 | 100 | 80 | 80 | Pre-emergence action against MATIN in % ([7]; dosage 80 g/ha): 90%; Pre-emergence action against PHBPU in % ([8]; dosage 80 g/ha): 90%; Post-emergence action against ABUTH in % ([13]; 320 g/ha): 80%; Post-emergence action against ALOMY in % ([14]; 320 g/ha): 90%; Post-emergence action against AMARE in % ([15]; 320 g/ha, visual rating about 3 weeks after treatment): 80%; Post-emergence action against ECHCG in % ([17]; dosage 320 g/ha): 80%; Post-emergence action against MATIN in % ([18]; dosage 320 g/ha): 80%; Post-emergence action against PHBPU in % ([19]; dosage 80 g/ha): 80%; Post-emergence action against PHBPU in % ([19]; dosage 320 g/ha): 90%; Post-emergence action against SETVI in % (Setaria viridis (SETVI) [21]; dosage 80 g/ha): 90%; Post-emergence action against SETVI in % (Setaria viridis (SETVI) [21]; dosage 320 g/ha): 90%; Post-emergence action against VERPE in % ([22]; 320 g/ha, VERPE): 90%; Post-emergence action against VIOTR in % (Viola tricolor (VIOTR) [24]): 80%
